Experiments:
human purine NP = target: T1, human purine NP (Homo sapiens, UniProt P00491); assay: HPLC of glycosylation products; type: biochemical; settings: 500 µM X, 500 µM ribose 1-phosphate; 1 g/L enzyme; pH 9 or pH 7; 50 °C
T1 construct: gene PNP
T1 sequence (P00491 1-289): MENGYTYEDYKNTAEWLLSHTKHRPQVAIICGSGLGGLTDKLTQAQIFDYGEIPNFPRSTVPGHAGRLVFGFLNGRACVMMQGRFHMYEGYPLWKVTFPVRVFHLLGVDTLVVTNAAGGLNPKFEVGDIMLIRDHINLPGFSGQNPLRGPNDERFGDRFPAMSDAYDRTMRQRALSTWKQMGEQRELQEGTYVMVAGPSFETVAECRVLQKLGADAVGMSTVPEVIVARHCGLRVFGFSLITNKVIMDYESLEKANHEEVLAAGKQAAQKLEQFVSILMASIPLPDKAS

[1] = target: T2, GtPyNP (pyrimidine NP from G. thermoglucosidasius) (Parageobacillus thermoglucosidasius, UniProt A0AAN0YQC1); assay: HPLC of glycosylation products; type: biochemical; settings: 500 µM X, 500 µM ribose 1-phosphate; 1 g/L enzyme; pH 9 or pH 7; 50 °C
T2 construct: gene deoA
T2 sequence (A0AAN0YQC1 entry or part of it): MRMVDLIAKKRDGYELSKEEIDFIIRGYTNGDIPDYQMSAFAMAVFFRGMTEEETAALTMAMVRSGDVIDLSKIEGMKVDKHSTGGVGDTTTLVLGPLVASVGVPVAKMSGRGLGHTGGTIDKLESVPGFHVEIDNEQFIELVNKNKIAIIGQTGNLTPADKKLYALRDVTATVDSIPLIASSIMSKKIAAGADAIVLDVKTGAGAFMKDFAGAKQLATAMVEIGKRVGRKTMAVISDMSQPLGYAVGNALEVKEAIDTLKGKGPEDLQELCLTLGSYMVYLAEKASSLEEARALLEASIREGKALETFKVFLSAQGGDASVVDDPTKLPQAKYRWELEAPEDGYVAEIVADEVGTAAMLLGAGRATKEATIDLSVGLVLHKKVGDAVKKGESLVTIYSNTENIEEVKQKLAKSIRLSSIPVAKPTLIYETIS

HPLC of glycosylation products (human purine NP)	Compound	HPLC of glycosylation products [1]
mammalian NPs (human purine NP)	O=P(O)(O)O[C@H]1O[C@H](CO)[C@@H](O)[C@H]1O [Rib1P, ribose 1-phosphate]	purine and pyrimidine NP from Geobacillus thermoglucosidasius
mammalian NPs (human purine NP)	O=c1[nH]c(=O)c2[nH]cnc2[nH]1 [X, xanthine]	purine and pyrimidine NP from Geobacillus thermoglucosidasius
